{"source": "patent EP0067711A2", "about": "“New 1-benzyl-3,4-dihydro-isoquinoline derivative” (CHINOIN Gyogyszer és Vegyészeti Termékek Gyára RT., priority 1981, dated 1982)", "key": {"[1]": {"system": "acute coronary insufficiency induced by vasopressine", "test": "anti-angina activity: inhibition of vasopressine-induced acute coronary insufficiency (rise of T-wave on ECG), method of Papp and Szekeres", "format": "in vivo, rats belonging to the CFY strain", "details": "vasopressine 2 IU/kg i.v., pentobarbital anaesthetized CFY rats; papaverin = 1"}, "[2]": {"system": "haemodynamic and cardiovascular system", "test": "general effects on the haemodynamic and cardiovascular system in pentobarbital anaesthetized dogs", "format": "in vivo", "design": "A. vertebralis flow, Changed value: unit not given here", "details": "1 mg/kg i.v."}, "[3]": {"system": "electric fibrillation threshold of the auricle and ventricle", "test": "antiarrhythmial effect: change of electric fibrillation threshold in chloralose-urethane anaesthetized cats", "format": "in vivo", "details": "1 mg/kg i.v.", "procedure": "The antiarrhythmial effect is determined on chloralose-urethane anaesthetized cats [500/300 mg/kg i.p.] by measuring the changes of the electric fibrillation threshold of the auricle and ventricle respectively [method of Szekeres, Méhes and Papp: Brit. 0. Pharmacol. 17, 167 (1961) and that of Szekeres and Papp: Hdb. exp. Pharmacol. 16/3, 131 (1975) respectively]. The general effects exerted on the haemodynamic and cardiovascular system are tested on pentobarbital anaesthetized dogs (35 mg/kg i.v.)."}}}
{"compound": "CCOc1cc(CC2=NCCc3cc(OCC)c(OCC)cc32)ccc1O", "note": "[Formula VII, 6,7-diethoxy-1-(3-ethoxy-4-hydroxy-benzyl)-3,4-dihydro-isoquinoline, reference compound]", "values": [{"measurement": "anti-angina activity related to that of papaverin", "setting": "[1]", "value": 1.28}, {"measurement": "A. carotis flow, Duration of effect", "setting": "[2]", "value": 12, "unit": "min"}, {"measurement": "A. carotis flow, Percental difference", "setting": "[2]", "value": -12}, {"measurement": "A. carotis resistance, Duration of effect", "setting": "[2]", "value": 15, "unit": "min"}, {"measurement": "A. femoralis flow, Duration of effect", "setting": "[2]", "value": 11, "unit": "min"}, {"measurement": "A. femoralis resistance, Duration of effect", "setting": "[2]", "value": 18, "unit": "min"}, {"measurement": "A. vertebralis flow, Duration of effect", "setting": "[2]", "value": 7, "unit": "min"}, {"measurement": "A. vertebralis resistance, Duration of effect", "setting": "[2]", "value": 12, "unit": "min"}, {"measurement": "A. vertebralis resistance, Percental difference", "setting": "[2]", "value": "+12"}, {"measurement": "Arterial blood pressure, Duration of effect", "setting": "[2]", "value": 8, "unit": "min"}, {"measurement": "Arterial blood pressure, Percental difference", "setting": "[2]", "value": -22}, {"measurement": "Contractibility of the left ventricle (dp/dt), Percental difference", "setting": "[2]", "value": -13}, {"measurement": "Coronary flow, Duration of effect", "setting": "[2]", "value": 15, "unit": "min"}, {"measurement": "Coronary flow, Percental difference", "setting": "[2]", "value": "+18"}, {"measurement": "Coronary resistance, Duration of effect", "setting": "[2]", "value": 11, "unit": "min"}, {"measurement": "Coronary resistance, Percental difference", "setting": "[2]", "value": -22}, {"measurement": "Efficiency of cardial function, Duration of effect", "setting": "[2]", "value": 20, "unit": "min"}, {"measurement": "Efficiency of cardial function, Percental difference", "setting": "[2]", "value": -13}, {"measurement": "Frequence volume, Duration of effect", "setting": "[2]", "value": 5, "unit": "min"}, {"measurement": "Function of the left ventricle, Duration of effect", "setting": "[2]", "value": 13, "unit": "min"}, {"measurement": "Function of the left ventricle, Percental difference", "setting": "[2]", "value": -19}, {"measurement": "Heart frequence/min, Duration of effect", "setting": "[2]", "value": 7, "unit": "min"}, {"measurement": "Minute volume, Duration of effect", "setting": "[2]", "value": 3, "unit": "min"}, {"measurement": "Myocardial oxygenization (O2 supply per O2 consumption), Duration of effect", "setting": "[2]", "value": 18, "unit": "min"}, {"measurement": "Myocardial oxygenization (O2 supply per O2 consumption), Percental difference", "setting": "[2]", "value": "+10"}, {"measurement": "Oxygen consumption of the left ventricle, Duration of effect", "setting": "[2]", "value": 9, "unit": "min"}, {"measurement": "Total peripherial resistance, Duration of effect", "setting": "[2]", "value": 14, "unit": "min"}, {"measurement": "Total peripherial resistance, Percental difference", "setting": "[2]", "value": -32}, {"measurement": "Efficiency of cardial function, Changed value", "setting": "[2]; average + S.E., basic value 0.32 ± 0.03", "value": "0.28 ± 0.05", "unit": "mkg/ml/100 g"}, {"measurement": "Coronary resistance, Changed value", "setting": "[2]; average + S.E., basic value 1.03 ± 0.10", "value": "1.42 ± 0.22", "unit": "Hgmm/ml/min/100 g"}, {"measurement": "Myocardial oxygenization (O2 supply per O2 consumption), Changed value", "setting": "[2]; average + S.E., basic value 1.62 ± 0.06", "value": "1.79 ± 0.10"}, {"measurement": "A. carotis resistance, Changed value", "setting": "[2]; average + S.E., basic value 2.04 ± 0.3", "value": "2.19 ± 0.4", "unit": "Hgmm/ml/min"}, {"measurement": "Function of the left ventricle, Changed value", "setting": "[2]; average + S.E., basic value 2.74 ± 0.49", "value": "2.22 ± 0.56", "unit": "mkg/min"}, {"measurement": "A. vertebralis resistance, Changed value", "setting": "[2]; average + S.E., basic value 3.22 ± 0.61", "value": "3.65 ± 0.32", "unit": "Hgmm/ml/min"}, {"measurement": "A. femoralis resistance, Changed value", "setting": "[2]; average + S.E., basic value 3.48 ± 0.45", "value": "3.69 ± 0.68", "unit": "Hgmm/ml/min"}, {"measurement": "Frequence volume, Changed value", "setting": "[2]; average + S.E., basic value 8,8 ± 1", "value": "9.5 ± 1.2", "unit": "mL"}, {"measurement": "Oxygen consumption of the left ventricle, Changed value", "setting": "[2]; average + S.E., basic value 8.4 ± 0.9", "value": "7.9 ± 1.9", "unit": "ml/min/100 g"}, {"measurement": "A. femoralis flow, Changed value", "setting": "[2]; average + S.E., basic value 46 ± 5", "value": "42 ± 5", "unit": "mL/min"}, {"measurement": "A. vertebralis flow, Changed value", "setting": "[2]; average + S.E., basic value 54 ± 9", "value": "50 ± 7"}, {"measurement": "Coronary flow, Changed value", "setting": "[2]; average + S.E., basic value 73 ± 13", "value": "86 ± 13", "unit": "ml/min/100 g"}, {"measurement": "A. carotis flow, Changed value", "setting": "[2]; average + S.E., basic value 91 ± 9", "value": "80 ± 10", "unit": "mL/min"}, {"measurement": "Arterial blood pressure, Changed value", "setting": "[2]; average + S.E., basic value 147 ± 9", "value": "115 ± 11", "unit": "Hgmm"}, {"measurement": "Heart frequence/min, Changed value", "setting": "[2]; average + S.E., basic value 173 ± 8", "value": "160 ± 9", "unit": "min⁻¹"}, {"measurement": "Minute volume, Changed value", "setting": "[2]; average + S.E., basic value 1500 ± 153", "value": "1466 ± 233", "unit": "mL/min"}, {"measurement": "Contractibility of the left ventricle (dp/dt), Changed value", "setting": "[2]; average + S.E., basic value 5625 ± 557", "value": "4883 ± 419", "unit": "Hgmm/sec"}, {"measurement": "Total peripherial resistance, Changed value", "setting": "[2]; average + S.E., basic value 7015 ± 238", "value": "4785 ± 275", "unit": "dyn. sec. cm^-5"}, {"measurement": "Arterial blood pressure, Duration of effect", "setting": "[3]", "value": 5, "unit": "min"}, {"measurement": "Arterial blood pressure, Percental difference", "setting": "[3]", "value": -23}, {"measurement": "Auricle fibrillation threshold, Duration of effect", "setting": "[3]", "value": 9, "unit": "min"}, {"measurement": "Auricle fibrillation threshold, Percental difference", "setting": "[3]", "value": "+48"}, {"measurement": "Ventricle fibrillation threshold, Duration of effect", "setting": "[3]", "value": 12, "unit": "min"}, {"measurement": "Ventricle fibrillation threshold, Percental difference", "setting": "[3]", "value": "+43"}, {"measurement": "Auricle fibrillation threshold, Changed value", "setting": "[3]; average + S.E., basic value 0.52 ± 0.07", "value": "0.77 ± 0.19", "unit": "mA"}, {"measurement": "Ventricle fibrillation threshold, Changed value", "setting": "[3]; average + S.E., basic value 0.70 ± 0.10", "value": "1.00 ± 0.18", "unit": "mA"}, {"measurement": "Arterial blood pressure, Changed value", "setting": "[3]; average + S.E., basic value 142 ± 11", "value": "110 ± 16", "unit": "Hgmm"}]}
